Measurements as given in patent EP4775575A1, “COMPOUND USED AS CDK4 KINASE INHIBITOR AND USE THEREOF” (TYK Medicines, Inc., priority 2023, dated 2025).
Read-outs that look alike come from different tables or passages of the source.

What was measured:
[1] = tested on: Human breast cancer cells MCF-7; assay: Cell anti-proliferation assay (MTT), MCF-7; type: cell-based; settings: MCF-7 cells, incubated for 5 days
Experimental: (§1) Human breast cancer cells MCF-7, human ovarian cancer cells A2780, human mantle cell lymphoma cells JEKO-1. DMEM medium (Bio-Channel), DMSO (dimethyl sulfoxide), MTT (thiazolyl blue), 0.25% EDTA-Trypsin (trypsin digestive solution), 1×PBS (phosphate buffered saline, pH 7.2), 96-well plate (Corning), fetal bovine serum (FBS), 10,000 U/mL penicillin-G/streptomycin, high-speed refrigerated centrifuge (EPPENDORF 5810R), and microplate reader (Tecan Spark).
(§2) • A) Tumor cells were cultured in DMEM (high glucose, containing 10% FBS and 100 U/mL penicillin-G/streptomycin) at 37 °C, 5% CO2 and saturated humidity until 80-90% confluence. • B) The medium in the 10 cm culture dish was removed. • C) Cells were rinsed once with 10 mL of 1×PBS. • D) 4 mL of 0.25% EDTA-Trypsin was added, and the cells were digested in a 37 °C, 5% CO2 incubator for 5 minutes. The mixture was transferred to a 15 mL centrifuge tube, centrifuged at 200 g for 5 minutes, and the supernatant was discarded to obtain cell pellet. • E) The cells were resuspended in 4 mL of DMEM medium, counted, and adjusted to 50,000 cells/mL. • F) 100 µL of cell suspension was added to each well of a 96-well plate, and the plate was incubated overnight at 37 °C in a 5% CO2 incubator.
(§3) • A) Gradient dilution solutions of the test compounds were prepared: the test compound was prepared into a 1 mM stock solution. Then 1.5 µL of the stock solution was dissolved in 1.5 mL of DMSO-free medium, followed by 3-fold serial gradient dilution with medium containing 0.1% DMSO to give 9 concentrations.
(§4) • A) The cell culture plate was taken out, and 10 µL of 5 mg/mL MTT was added in a biological safety cabinet; • B) The plate was returned to the incubator and incubated for another 3 hours; • C) The cell culture plate was taken out and the medium was removed, 100 µL of isopropanol (containing 0.4 mM HCl, 0.1% NP-40) was added, and the plate was shaken at room temperature for 30 minutes; • D) The absorbance at 570 nm was measured using a TECAN microplate reader.

[2] = tested on: human mantle cell lymphoma cells JEKO-1; assay: Cell anti-proliferation assay (MTT), JEKO-1; type: cell-based; settings: JEKO-1 cells, incubated for 5 days
Experimental: as §1, §2, §3, §4

CDK6/CyclinD3 = target: T1, CDK6/CyclinD3 (Homo sapiens, UniProt Q00534); assay: Kinase activity assay (MSA, EZ Reader) against CDK6; type: biochemical; settings: CDK6/CyclinD3 5.00 nM, ATP 350 µM, FL-Peptide34, 10mM MgCl2
T1 construct: purchased Carna 04-107
T1 sequence (Q00534 whole entry): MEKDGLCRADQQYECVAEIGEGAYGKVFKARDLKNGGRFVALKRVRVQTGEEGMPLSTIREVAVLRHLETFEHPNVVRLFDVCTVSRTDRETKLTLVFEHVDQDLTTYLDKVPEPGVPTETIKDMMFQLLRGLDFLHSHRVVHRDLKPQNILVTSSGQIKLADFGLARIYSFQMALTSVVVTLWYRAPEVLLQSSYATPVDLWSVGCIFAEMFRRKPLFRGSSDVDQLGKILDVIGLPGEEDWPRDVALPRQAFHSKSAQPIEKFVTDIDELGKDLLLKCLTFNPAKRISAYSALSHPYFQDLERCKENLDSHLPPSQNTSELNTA
T1 sequence (P30281 whole entry partner): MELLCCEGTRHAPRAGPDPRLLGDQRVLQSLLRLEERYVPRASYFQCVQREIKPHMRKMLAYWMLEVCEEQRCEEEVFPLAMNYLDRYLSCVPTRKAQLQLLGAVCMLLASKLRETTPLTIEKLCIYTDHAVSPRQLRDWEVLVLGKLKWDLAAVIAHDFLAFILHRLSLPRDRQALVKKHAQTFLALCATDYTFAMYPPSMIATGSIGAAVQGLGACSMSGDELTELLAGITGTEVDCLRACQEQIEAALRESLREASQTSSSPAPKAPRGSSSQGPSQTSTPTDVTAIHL

[3] = tested on: human ovarian cancer cells A2780; assay: Cell anti-proliferation assay (MTT), A2780; type: cell-based; settings: incubated for 5 days
Experimental: as §1, §2, §3, §4

[4] = Preclinical pharmacokinetic study in rats; type: in vivo, Sprague-Dawley (SD) rats; settings: male SD rats, oral gavage (p.o.) 10 mg/kg, plasma; for AUC(0-t) / Cmax / Tmax: rat
Experimental: Healthy adult Sprague-Dawley (SD) rats, male, 6-8 weeks old, weighing 200-300 g. EDTA-Na2 anticoagulant. Analytical balance, animal weighing scale, magnetic stirrer, refrigerated centrifuge, single-channel manual pipette, etc. About 10 mg of the test sample was precisely weighed, dissolved in a calculated volume of 5% DMSO, followed by addition of 10% solutol HS-15 and 85% normal saline. The mixture was sonicated and vortexed to homogeneity to obtain a solution with a concentration of 1 mg/mL. The solution was freshly prepared before use. Animals were housed in rat cages and fasted overnight (no less than 10 h) before the test, with free access to water. On the day of the test, animals were weighed and marked on the tail. Blank blood samples were collected before administration. The blood was collected via tail vein. • Route of administration: oral gavage (p.o.) • Dose: 10 mg/kg • Dosing volume: 10 mL/kg • Procedure: The rat was held upright with the left hand wearing bite-resistant glove. A 16-gauge gavage needle was inserted through the mouth into the esophagus. The needle was advanced gently without obvious resistance, and the drug solution was injected into the stomach. Whole blood (0.1 mL) were collected from each test animal before administration and at 0.5 […], and 24 h after administration into EDTA-Na2 anticoagulant tubes. The tubes were inverted 3-4 times for mixing, then centrifuged at 10,000 g for 5 min at 4 °C to separate plasma. Plasma samples were stored at -80 °C until analysis. Blood was collected via tail vein. […] The mixture was vortexed for 2 min and centrifuged at 10,000 g for 10 min at 4 °C. Processing of unknown plasma samples: 25 μL of drug-containing rat plasma was transferred, followed by addition of 25 μL of methanol and 200 μL of internal standard solution. The mixture was vortexed for 2 min and centrifuged at 10,000 g for 10 min at 4 °C. The supernatant was collected for LC-MS/MS analysis. A quantitative method for the determination of the test compound was established using a Shimadzu liquid chromatography system coupled with Triple Quad^TM 6500+ AB mass spectrometer. The concentration of the parent drug in plasma was determined. The plasma concentration-time curve was plotted, and the main pharmacokinetic parameters were calculated using a non-compartmental model in winnonlin Phoenix software.

| Structure (SMILES) | IC50 ([1]; Homo sapiens, MCF7, 120 h) [nM] | IC50 ([2]; Homo sapiens, 120 h) [nM] | IC50 (CDK6/CyclinD3) [nM] | IC50 ([3]; Homo sapiens, 120 h) [nM] | HL_ [4] [h] | other results |
| --- | --- | --- | --- | --- | --- | --- |
| CC1CCN(C)c2nc3c(F)cc(-c4nc(N[C@@H]5CCOC[C@H]5O)ncc4Cl)cc3n21 (mixture of isomers) [TB-44, (3S,4R)-4-((5-chloro-4-(9-fluoro-1,4-dimethyl-1,2,3,4-tetrahydrobenzo[4,5]imidazo[1,2-a]pyrimidin-7-yl)pyrimidin-2-yl)amino)tetrahydro-2H-pyran-3-ol] | ≤ 500 | ≤ 500 | 90.2 | ≤ 500 |  |  |
| [2H]C([2H])([2H])N1CC[C@H](C)n2c1nc1c(F)cc(-c3nc(N[C@@H]4CCOC[C@H]4O)ncc3Cl)cc12 [TA-28] |  |  |  |  | 1.58 | IC50 ([1]; read-out: MCF7 IC50): ≤ 500 nM; IC50 [2]: ≤ 500 nM; AUC(0-t) ([4]; in vivo): 2490 ng·h/mL; Cmax ([4]; in vivo): 990 ng/mL; Tmax ([4]; in vivo): 30 min; IC50 [3]: ≤ 500 nM |
| C[C@H]1CCN(CC(F)(F)F)c2nc3c(F)cc(-c4nc(N[C@@H]5CCOC[C@H]5O)ncc4Cl)cc3n21 [TA-29] | ≤ 500 | ≤ 500 |  | ≤ 500 | 1.60 | AUC(0-t) ([4]; Sprague-Dawley): 1490 ng·h/mL; Cmax ([4]; Sprague-Dawley): 506 ng/mL; Tmax ([4]; Sprague-Dawley): 40.2 min |
| CC(C)n1c(N2CCOC2=O)nc2c(F)cc(-c3nc(N[C@@H]4CCOC[C@H]4O)ncc3C(F)(F)F)cc21 [TB-27] |  |  |  |  | 3.69 | AUC(0-t) ([4]; Sprague-Dawley): 11500 ng·h/mL; Cmax ([4]; Sprague-Dawley): 1500 ng/mL; Tmax ([4]; Sprague-Dawley): 140 min |
| CN1CCCn2c1nc1c(F)cc(-c3nc(N[C@@H]4CCOC[C@H]4O)ncc3Cl)cc12 [TB-40] | ≤ 500 | ≤ 500 | 229 | ≤ 500 |  |  |
| CN1CCCn2c1nc1c(F)cc(-c3nc(N[C@@H]4CCOC[C@H]4O)ncc3F)cc12 [TB-42, (3S,4R)-4-((5-fluoro-4-(9-fluoro-1-methyl-1,2,3,4-tetrahydrobenzo[4,5]imidazo[1,2-a]pyrimidin-7-yl)pyrimidin-2-yl)amino)tetrahydro-2H-pyran-3-ol] | ≤ 500 | ≤ 500 | 195 | ≤ 500 |  |  |
| CN1CCn2c1nc1c(F)cc(-c3nc(N[C@@H]4CCOC[C@H]4O)ncc3Cl)cc12 [TB-45, (3S,4R)-4-((5-chloro-4-(8-fluoro-1-methyl-2,3-dihydro-1H-benzo[d]imidazo[1,2-a]imidazol-6-yl)pyrimidin-2-yl)amino)tetrahydro-2H-pyran-3-ol] | ≤ 500 | ≤ 500 | 241 | ≤ 500 |  |  |
| CN1C(=O)CCn2c1nc1c(F)cc(-c3nc(N[C@@H]4CCOC[C@H]4O)ncc3Cl)cc12 [TB-46, 7-(5-chloro-2-(((3S,4R)-3-hydroxytetra hydro-2H-pyran-4-yl)amino)pyrimidin-4-yl)-9-fluoro-1-methyl-3,4-dihydrobenzo[4,5]imidazo[1,2-a]pyrimidin-2(1H)-one] | ≤ 500 | ≤ 500 | 244 | ≤ 500 |  |  |
| CN1CCn2c1nc1c(F)cc(-c3nc(NC4CCN(S(C)(=O)=O)CC4)ncc3Cl)cc12 [TB-52, 5-chloro-4-(8-fluoro-1-methyl-2,3-dihydro-1H-benzo[d]imidazo[1,2-a]imidazol-6-yl)-N-(1-(methylsulfonyl)piperidin-4-yl)pyrimidin-2-amine] | ≤ 500 | ≤ 500 | 40.6 | ≤ 500 |  |  |
| CN1CCCn2c1nc1c(F)cc(-c3nc(Nc4ccncc4)ncc3Cl)cc12 [TB-90] | 500 to 2000 | ≤ 500 | 95.2 | ≤ 500 |  |  |
| C[C@@H]1CCN(C)c2nc3c(F)cc(-c4nc(N[C@@H]5CCOC[C@H]5O)ncc4Cl)cc3n21 [TB-91, (3S,4R)-4-((5-chloro-4-((R)-9-fluoro-1,4-dimethyl-1,2,3,4-tetrahydrobenzo[4,5]imidazo[1,2-a]pyrimidin-7-yl)pyrimidin-2-yl)amino)tetrahydro-2H-pyran-3-ol] | ≤ 500 | ≤ 500 | 68.4 | ≤ 500 |  |  |
| CC(C)N1CCCn2c1nc1c(F)cc(-c3nc(N[C@@H]4CCOC[C@H]4O)ncc3Cl)cc12 [TB-108, (3S,4R)-4-((5-chloro-4-(9-fluoro-1-isopropyl-1,2,3,4-tetrahydrobenzo[4,5]imidazo[1,2-a]pyrimidin-7-yl)pyrimidin-2-yl)amino)tetrahydro-2H-pyran-3-ol] | ≤ 500 | ≤ 500 |  | ≤ 500 | 1.25 | AUC(0-t) ([4]; Sprague-Dawley): 1370 ng·h/mL; Cmax ([4]; Sprague-Dawley): 503 ng/mL; Tmax ([4]; Sprague-Dawley): 36 min |
| CCN1CCCn2c1nc1c(F)cc(-c3nc(N[C@@H]4CCOC[C@H]4O)ncc3Cl)cc12 [TB-109, (3S,4R)-4-((5-chloro-4-(1-ethyl-9-fluoro-1,2,3,4-tetrahydrobenzo[4,5]imidazo[1,2-a]pyrimidin-7-yl)pyrimidin-2-yl)amino)tetrahydro-2H-pyran-3-ol] | 500 to 2000 | ≤ 500 |  | ≤ 500 | 5.32 | AUC(0-t) ([4]; Sprague-Dawley): 1770 ng·h/mL; Cmax ([4]; Sprague-Dawley): 777 ng/mL; Tmax ([4]; Sprague-Dawley): 30 min |
| COCc1cc(Nc2ncc(Cl)c(-c3cc(F)c4nc5n(c4c3)CCCN5C)n2)ccn1 [TB-130, 5-chloro-4-(9-fluoro-1-methyl-1,2,3,4-tetrahydrobenzo[4,5]imidazo[1,2-a]pyrimidin-7-yl)-N-(2-(methoxymethyl)pyridin-4-yl)pyrimidin-2-amine] | ≤ 500 | ≤ 500 | 155 | ≤ 500 |  |  |
| C[C@H]1CCN(c2cc(F)ccc2F)c2nc3c(F)cc(-c4nc(N[C@@H]5CCOC[C@H]5O)ncc4Cl)cc3n21 [TC-16] | ≤ 500 | ≤ 500 |  | ≤ 500 |  |  |
| C[C@H]1CCN(c2ccccc2C#N)c2nc3c(F)cc(-c4nc(N[C@@H]5CCOC[C@H]5O)ncc4Cl)cc3n21 [TC-18] | ≤ 500 | ≤ 500 |  | ≤ 500 |  |  |
